Data: US7361671B2, “Substituted heteroarylalkanoic acids” (The Institute for Pharmaceutical Discovery, Inc., priority 2001, dated 2008)
Structures can show the parent of a compound that is named as a salt.

Assays:
[1] = target: human aldose reductase (hALR2) (Homo sapiens, UniProt P15121); test: inhibition of human aldose reductase (hALR2) activity, methods similar to Butera et al.; type: biochemical; settings: concentration to inhibit activity by 50%, read-out: hAR-#1 (aldose)
Description: Representative compounds of the invention are tested for their potency, selectivity and efficacy as inhibitors of human aldose reductase. […] Using this assay, the concentrations required to inhibit human aldose reductase (hALR2) activity by 50% (IC50) are determined.

SMILES	melting point	IC50 [1] [nM]
CCc1ncc(CC(=O)O)cc1Cc1nc2c(F)c(F)cc(F)c2s1 (as salt: hydrochloride) [Example 14, 6-ethyl-5-(4,5,7-trifluoro-benzothiazol-2-ylmethyl)-pyridin-3-yl-acetic acid hydrochloride]	220 °C (dec.)	
CCCc1nc(CCC)c(Cc2nc3c(F)c(F)cc(F)c3s2)cc1CC(=O)O.Cl [Example 7, [2,6-Dipropyl-5-(4,5,7-trifluoro-benzothiazol-2-ylmethyl)-pyridin-3-yl]acetic acid hydrochloride]	98 to 100 °C	7
O=C(O)Cc1cnc(Cc2ccccc2)c(Cc2nc3c(F)c(F)cc(F)c3s2)c1 (as salt: hydrochloride) [Example 16, 6-Benzyl-5-(4,5,7-trifluoro-benzothiazol-2-ylmethyl)-pyridin-3-yl-acetic acid hydrochloride]	185 °C (dec.)	
Cc1nc(C)c(Cc2nc3c(F)c(F)cc(F)c3s2)cc1CC(=O)O.Cl [Example 4, 2,6-Dimethyl-5-(4,5,7-trifluoro-benzothiazole-2-ylmethyl)-pyridin-3-yl-acetic acid hydrochloride]	211 °C (dec.)	4
Cc1nc(C)c(Cc2nc3c(F)c(F)cc(F)c3s2)c(C)c1CC(=O)O (as salt: hydrochloride) [Example 9, 2,4,6-trimethyl-5-(4,5,7-trifluoro-benzothiazol-2-ylmethyl)-pyridin-3-yl-acetic acid hydrochloride]	216 to 217 °C	
O=C(O)Cc1cncc(Cc2nc3c(F)c(F)cc(F)c3s2)c1 (as salt: hydrochloride) [Example 8, 5-(4,5,7-trifluoro-benzothiazol-2-ylmethyl)-pyridin-3-yl-acetic acid hydrochloride]	196 to 197 °C	
O=C(O)Cc1cc(Cc2nc3c(F)c(F)cc(F)c3s2)cs1 [Example 21, [4-(4,5,7-Trifluoro-benzothiazol-2-ylmethyl)-thiophen-2-yl]-acetic acid]	144 to 146 °C	9
CCc1nc(CC)c(Cc2nc3c(F)c(F)cc(F)c3s2)cc1CC(=O)O.Cl [Example 5, [2,6-Diethyl-5-(4,5,7-trifluoro-benzothiazol-2-ylmethyl)-pyridin-3-yl]acetic acid hydrochloride]	143 to 145 °C	7
Cl.O=C(O)Cc1cc(Cc2nc3c(F)c(F)cc(F)c3s2)c(-c2ccccc2)nc1-c1ccccc1 [Example 6, [2,6-Diphenyl-5-(4,5,7-trifluoro-benzothiazol-2-ylmethyl)-pyridin-3-yl]acetic acid hydrochloride]	84 to 86 °C	11
CCc1c(CC(=O)O)c(C)nc(C)c1Cc1nc2c(F)c(F)cc(F)c2s1 (as salt: hydrochloride) [Example 10, 2,6-dimethyl-4-ethyl-5-(4,5,7-trifluoro-benzothiazol-2-ylmethyl)-pyridin-3-yl-acetic acid hydrochloride]	193 to 195 °C	

Other lines, results leading:

melting point	IC50 [1] [nM]	SMILES
205 to 207 °C (dec.)		O=C(O)Cc1cnc(-c2ccccc2)c(Cc2nc3c(F)c(F)cc(F)c3s2)c1 (as salt: hydrochloride) [Example 15, 6-Phenyl-5-(4,5,7-trifluoro-benzothiazol-2-ylmethyl)-pyridin-3-yl-acetic acid hydrochloride]
142 to 144 °C	24	O=C(O)Cc1ccsc1Cc1nc2c(F)c(F)cc(F)c2s1 [Example 23, [2-(4,5,7-trifluoro-benzothiazol-2-ylmethyl)-thiophen-3-yl]-acetic acid]
132 to 133 °C	27	O=C(O)Cc1ccc(Cc2nc3c(F)c(F)cc(F)c3s2)s1 [Example 19, [5-(4,5,7-trifluoro-benzothiazol-2-ylmethyl)-thiophen-2-yl]-acetic acid]
170 to 171 °C	36	Cc1sc(C)c(Cc2nc3c(F)c(F)cc(F)c3s2)c1CC(=O)O [Example 18, [2,5-Dimethyl-4-(4,5,7-trifluoro-benzothiazol-2-ylmethyl)-thiophen-3-yl]-acetic acid]
131 to 132 °C		O=C(O)Cc1cc(Cc2nc3cc(C(F)(F)F)ccc3s2)cs1 (as salt: hydrochloride)
